The values that follow come from US5118678A, “Carbamates of rapamycin” (American Home Products Corporation, priority 1991, dated 1992).

Where two headings read alike, the source gives them in different places. A value given as a limit tells only on which side of the number the result lay.

Test [1] has as its system cells from the thymus of normal BALB/c mice (lymphocyte proliferation). As to the kind of experiment: comitogen-induced thymocyte proliferation procedure (LAF). As to conditions: Mus musculus; for IC50: read-out: LAF IC50. It counts as cell-based. The method, then:
(§1) Immunosuppressive activity was evaluated in an in vitro standard pharmacological test procedure to measure lymphocyte proliferation (LAF) and in two in vivo standard pharmacological test procedures. The first in vivo procedure was a popliteal lymph node (PLN) test procedure which measured the effect of compounds of this invention on a mixed lymphocyte reaction and the second in vivo procedure evaluated the survival time of a pinch skin graft.
Briefly, cells from the thymus of normal BALB/c mice are cultured for 72 hours with PHA and IL-1 and pulsed with tritiated thymidine during the last six hours. […] Cells are harvested and incorporated radioactivity is determined. Inhibition of lymphoproliferation is assessed as percent change in counts per minute from non-drug treated controls. The results are expressed as an IC50. [formula]

Test [2] deals with popliteal lymph node, mixed lymphocyte reaction. Kind of test: popliteal lymph node (PLN) test procedure (in vivo mixed lymphocyte reaction). As to conditions: for PLN (ratio): p.o. daily Day 0 to Day 4, rapamycin = 1.00. The arrangement: species or system C3H mice (recipients), BALB/c donors. The method, then: as §1
A mixed lymphocyte reaction (MLR) occurs when lymphoid cells from genetically distinct animals are combined in tissue culture. Each stimulates the other to undergo blast transformation which results in increased DNA synthesis that can be quantified by the incorporation of tritiated thymidine. Since stimulating a MLR is a function of disparity at Major Histocompatibility antigens, an in vivo popliteal lymph node (PLN) test procedure closely correlates to host vs. graft disease. Briefly, irradiated spleen cells from BALB/c donors are injected into the right hind foot pad of recipient C3H mice. The drug is given daily, p.o. from Day 0 to Day 4. On Day 3 and Day 4, tritiated thymidine is given i.p., b.i.d. On Day 5, the hind popliteal lymph nodes are removed and dissolved, and radioactivity counted. The corresponding left PLN serves as the control for the PLN from the injected hind foot. Percent suppression is calculated using the non-drug treated animals as allogenic control. […] Results are expressed by the following ratio: [formula]

Test [3] relates to pinch skin graft from male DBA/2 donors transplanted to male BALB/c recipients. Kind of test: survival time of pinch skin graft. It counts as in vivo, DBA/2 donors (mice). As to conditions: intraperitoneally; mean ± S.D.; untreated grafts typically rejected within 6-7 days. The procedure: as §1
The second in vivo test procedure is designed to determine the survival time of pinch skin graft from male DBA/2 donors transplanted to male BALB/c recipients. The method is adapted from Billingham R. E. and Medawar P. B., J. Exp. Biol. 28:385-402, (1951). Briefly, a pinch skin graft from the donor is grafted on the dorsum of the recipient as a homograft, and an autograft is used as control in the same region. […] Untreated recipients serve as rejection control. The graft is monitored daily and observations are recorded until the graft becomes dry and forms a blackened scab. This is considered as the rejection day. The mean graft survival time (number of days ±S.D.) of the drug treatment group is compared with the control group.

For test [4] the following is noted: FASEB 1989; Lancet 1978; cited from earlier work.
Test [5] relates to experimental allergic encephalomyelitis model, a model for multiple sclerosis. As to conditions: R. Martel et al. 1977; cited from earlier work.
In another test the test system is IgE-like antibodies. As to conditions: R. Martel et al. 1977; cited from earlier work.
[6] abbreviates: thymocytes cultured 72 h with PHA and IL-1, tritiated thymidine incorporation, vs non-drug treated controls.

As for `CO[C@H]1C[C@@H]2CC[C@@H](C)[C@@](O)(O2)C(=O)C(=O)N2CCCC[C@H]2C(=O)O[C@H]([C@H](C)C[C@@H]2CC[C@@H](OC(=O)Nc3ccc(F)cc3)[C@H](OC)C2)CC(=O)[C@H](C)/C=C(\C)[C@@H](O)[C@@H](OC)C(=O)[C@H](C)C[C@H](C)/C=C/C=C/C=C/1C` [Example 1, Rapamycin 42-ester with (4-fluorophenyl)carbamic acid], the IC50 (usually the concentration at which inhibition is half-maximal) in test [1] (setting [6]) was 8.6 nM. Moreover, in test [2], the “PLN (ratio)” value was found to be 0.71 ratio. In addition, in test [3], the “Skin Graft (mean graft survival time, days + SD)” value is given as 8.5 ± 1.6 days.
Consider `CO[C@H]1C[C@@H]2CC[C@@H](C)[C@@](O)(O2)C(=O)C(=O)N2CCCC[C@H]2C(=O)O[C@H]([C@H](C)C[C@@H]2CC[C@@H](OC(=O)Nc3ccccc3)[C@H](OC)C2)CC(=O)[C@H](C)/C=C(\C)[C@@H](O)[C@@H](OC)C(=O)[C@H](C)C[C@H](C)/C=C/C=C/C=C/1C` [Example 2, Rapamycin 42-ester with phenylcarbamic acid], for which the IC50 in test [1] (setting [6]) is 3.9 nM. Further, in test [2], the “PLN (ratio)” value amounted to 0.47 ratio. Also, the “Skin Graft (mean graft survival time, days + SD)” value in test [3] was determined as 8.5 ± 1.2 days.
Turning to `CO[C@H]1C[C@@H]2CC[C@@H](C)[C@@](O)(O2)C(=O)C(=O)N2CCCC[C@H]2C(=O)O[C@H]([C@H](C)C[C@@H]2CC[C@@H](OC(=O)Nc3ccc(C(F)(F)F)cc3)[C@H](OC)C2)CC(=O)[C@H](C)/C=C(\C)[C@@H](OC(=O)Nc2ccc(C(F)(F)F)cc2)[C@@H](OC)C(=O)[C@H](C)C[C@H](C)/C=C/C=C/C=C/1C` [Example 3, Rapamycin-31,42-diester with [4-(trifluoromethyl)phenyl]carbamic acid], the IC50 in test [1] (setting [6]) is over 1000 nM.
Turning to `CO[C@H]1C[C@@H]2CC[C@@H](C)[C@@](O)(O2)C(=O)C(=O)N2CCCC[C@H]2C(=O)O[C@H]([C@H](C)C[C@@H]2CC[C@@H](OC(=O)Nc3ccc(C(F)(F)F)cc3)[C@H](OC)C2)CC(=O)[C@H](C)/C=C(\C)[C@@H](O)[C@@H](OC)C(=O)[C@H](C)C[C@H](C)/C=C/C=C/C=C/1C` [Example 4, Rapamycin-42-ester with [4-(trifluoromethyl)phenyl]carbamic acid], in test [1] (setting [6]), the IC50 stood at 57.9 nM. For the same compound, in test [2], the “PLN (ratio)” value came to 0.90 ratio.
`CO[C@H]1C[C@@H]2CC[C@@H](C)[C@@](O)(O2)C(=O)C(=O)N2CCCC[C@H]2C(=O)O[C@H]([C@H](C)C[C@@H]2CC[C@@H](OC(=O)Nc3ccc([N+](=O)[O-])cc3)[C@H](OC)C2)CC(=O)[C@H](C)/C=C(\C)[C@@H](OC(=O)Nc2ccc([N+](=O)[O-])cc2)[C@@H](OC)C(=O)[C@H](C)C[C@H](C)/C=C/C=C/C=C/1C` [Example 5, Rapamycin-31,42-diester with (4-nitrophenyl)carbamic acid]: the inhibition (usually the drop in the measured response relative to a control, in per cent) at 0.1 µM in test [1] (read-out: LAF percent inhibition) came out at 3%.
For the compound `CO[C@H]1C[C@@H]2CC[C@@H](C)[C@@](O)(O2)C(=O)C(=O)N2CCCC[C@H]2C(=O)O[C@H]([C@H](C)C[C@@H]2CC[C@@H](OC(=O)Nc3ccc([N+](=O)[O-])cc3)[C@H](OC)C2)CC(=O)[C@H](C)/C=C(\C)[C@@H](O)[C@@H](OC)C(=O)[C@H](C)C[C@H](C)/C=C/C=C/C=C/1C` [Example 6, Rapamycin-42-ester with (4-nitrophenyl)carbamic acid], the IC50 in test [1] (setting [6]) worked out at 10.4 nM. In addition, the “PLN (ratio)” value in test [2] is reported as 0.25 ratio. The “Skin Graft (mean graft survival time, days + SD)” value in test [3] is on record as 8.3 ± 1.0 days.
As to `CO[C@H]1C[C@@H]2CC[C@@H](C)[C@@](O)(O2)C(=O)C(=O)N2CCCC[C@H]2C(=O)O[C@H]([C@H](C)C[C@@H]2CC[C@@H](OC(=O)Nc3ccc(C)cc3)[C@H](OC)C2)CC(=O)[C@H](C)/C=C(\C)[C@@H](O)[C@@H](OC)C(=O)[C@H](C)C[C@H](C)/C=C/C=C/C=C/1C` [Example 8, Rapamycin-42-ester with (4-methylphenyl)carbamic acid], the IC50 in test [1] (setting [6]) was found to be 7.4 nM. For the same compound, in test [3], the “Skin Graft (mean graft survival time, days + SD)” value was found to be 8.8 ± 1.3 days.
On to `CO[C@H]1C[C@@H]2CC[C@@H](C)[C@@](O)(O2)C(=O)C(=O)N2CCCC[C@H]2C(=O)O[C@H]([C@H](C)C[C@@H]2CC[C@@H](OC(=O)Nc3ccc(F)cc3F)[C@H](OC)C2)CC(=O)[C@H](C)/C=C(\C)[C@@H](O)[C@@H](OC)C(=O)[C@H](C)C[C@H](C)/C=C/C=C/C=C/1C` [Example 9, Rapamycin-42-ester with (2,4-difluorophenyl)carbamic acid], for which the IC50 in test [1] (setting [6]) is 8.7 nM. The “PLN (ratio)” value in test [2] was found to be 0.72 ratio. In addition, the “Skin Graft (mean graft survival time, days + SD)” value in test [3] was 8.0 ± 1.7 days.
On to `CO[C@H]1C[C@@H]2CC[C@@H](C)[C@@](O)(O2)C(=O)C(=O)N2CCCC[C@H]2C(=O)O[C@H]([C@H](C)C[C@@H]2CC[C@@H](OC(=O)Nc3ccc(F)cc3F)[C@H](OC)C2)CC(=O)[C@H](C)/C=C(\C)[C@@H](OC(=O)Nc2ccc(F)cc2F)[C@@H](OC)C(=O)[C@H](C)C[C@H](C)/C=C/C=C/C=C/1C` [Example 10, Rapamycin-31,42-diester with (2,4-difluorophenyl)carbamic acid], for which the IC50 in test [1] (setting [6]) was over 1000 nM.
The same measure, in the same setting: the result for `CO[C@H]1C[C@@H]2CC[C@@H](C)[C@@](O)(O2)C(=O)C(=O)N2CCCC[C@H]2C(=O)O[C@H]([C@H](C)C[C@@H]2CC[C@@H](OC(=O)Nc3ccccc3)[C@H](OC)C2)CC(=O)[C@H](C)/C=C(\C)[C@@H](OC(=O)Nc2ccccc2)[C@@H](OC)C(=O)[C@H](C)C[C@H](C)/C=C/C=C/C=C/1C` [Example 11, Rapamycin-31,42-diester with phenylcarbamic acid] reads over 1000 nM; that for `CO[C@H]1C[C@@H]2CC[C@@H](C)[C@@](O)(O2)C(=O)C(=O)N2CCCC[C@H]2C(=O)O[C@H]([C@H](C)C[C@@H]2CC[C@@H](OC(=O)Nc3ccc(F)cc3)[C@H](OC)C2)CC(=O)[C@H](C)/C=C(\C)[C@@H](OC(=O)Nc2ccc(F)cc2)[C@@H](OC)C(=O)[C@H](C)C[C@H](C)/C=C/C=C/C=C/1C` [Example 12, Rapamycin-31,42-diester with (4-fluorophenyl)carbamic acid], over 1000 nM.
For `CO[C@H]1C[C@@H]2CC[C@@H](C)[C@@](O)(O2)C(=O)C(=O)N2CCCC[C@H]2C(=O)O[C@H]([C@H](C)C[C@@H]2CC[C@@H](O[Si](C)(C)C(C)(C)C)[C@H](OC)C2)CC(=O)[C@H](C)/C=C(\C)[C@@H](OC(=O)Nc2ccc(F)cc2F)[C@@H](OC)C(=O)[C@H](C)C[C@H](C)/C=C/C=C/C=C/1C` [Example 14, Rapamycin-42-tert-butyldimethylsilyl ether-31-ester with (2,4-difluorophenyl)carbamic acid], in test [1] (72 h), the IC50 is over 1000 nM.
With `CO[C@H]1C[C@@H]2CC[C@@H](C)[C@@](O)(O2)C(=O)C(=O)N2CCCC[C@H]2C(=O)O[C@H]([C@H](C)C[C@@H]2CC[C@@H](O)[C@H](OC)C2)CC(=O)[C@H](C)/C=C(\C)[C@@H](OC(=O)Nc2ccc(F)cc2F)[C@@H](OC)C(=O)[C@H](C)C[C@H](C)/C=C/C=C/C=C/1C` [Example 15, Rapamycin-31-ester with (2,4-difluorophenyl)carbamic acid], in test [1] (setting [6]), the IC50 is over 1000 nM.
Consider `C=CC[C@@H]1/C=C(\C)C[C@H](C)C[C@H](OC)[C@H]2O[C@@](O)(C(=O)C(=O)N3CCCC[C@H]3C(=O)O[C@H](/C(C)=C/[C@@H]3CC[C@@H](O)[C@H](OC)C3)[C@H](C)[C@@H](O)CC1=O)[C@H](C)C[C@@H]2OC` [FK-506], for which, in test [4], the immunosuppressive effects entry was “effective as immunosuppressive agents”.
Turning to `CO[C@H]1C[C@@H]2CC[C@@H](C)[C@@](O)(O2)C(=O)C(=O)N2CCCC[C@H]2C(=O)O[C@H]([C@H](C)C[C@@H]2CC[C@@H](O)[C@H](OC)C2)CC(=O)[C@H](C)/C=C(\C)[C@@H](O)[C@@H](OC)C(=O)[C@H](C)C[C@H](C)/C=C/C=C/C=C/1C` [Rapamycin], the IC50 in test [1] (72 h) fell in the range of 3.2 to 9.4 nM. The “percent suppression (PLN)” value in test [2] (6 mg/kg, p.o., vs non-drug treated animals as allogenic control) is on record as 86%. The “PLN (ratio)” value in test [2] was 1.00 ratio. Further, in test [5], the “effect in experimental allergic encephalomyelitis model” value is listed as “effective in the experimental allergic encephalomyelitis model”. For the same compound, the immunosuppressive effects result in test [4] is “immunosuppressive effects”. Besides, in test [3], the “Skin Graft (mean graft survival time, days + SD)” value is given as 12.0 ± 1.7 days. The “inhibition of formation of IgE-like antibodies” value in the test on IgE-like antibodies is on record as “effectively inhibited the formation of IgE-like antibodies”.
